Measurements from US8119675B2, “Benzimidazole derivatives” (Merck Patent GmbH, priority 2007, dated 2012).

Experiments:
SGLT1 = target: T1, SGLT1 (Homo sapiens, UniProt P13866); assay: 14C-AMG uptake in BHK cells transfected with SGLT1 (96-well cell-based assay); conditions: 50 μM AMG, 37° C., 90 min
T1 construct: expressed in transfected cells
T1 sequence (P13866 1-664): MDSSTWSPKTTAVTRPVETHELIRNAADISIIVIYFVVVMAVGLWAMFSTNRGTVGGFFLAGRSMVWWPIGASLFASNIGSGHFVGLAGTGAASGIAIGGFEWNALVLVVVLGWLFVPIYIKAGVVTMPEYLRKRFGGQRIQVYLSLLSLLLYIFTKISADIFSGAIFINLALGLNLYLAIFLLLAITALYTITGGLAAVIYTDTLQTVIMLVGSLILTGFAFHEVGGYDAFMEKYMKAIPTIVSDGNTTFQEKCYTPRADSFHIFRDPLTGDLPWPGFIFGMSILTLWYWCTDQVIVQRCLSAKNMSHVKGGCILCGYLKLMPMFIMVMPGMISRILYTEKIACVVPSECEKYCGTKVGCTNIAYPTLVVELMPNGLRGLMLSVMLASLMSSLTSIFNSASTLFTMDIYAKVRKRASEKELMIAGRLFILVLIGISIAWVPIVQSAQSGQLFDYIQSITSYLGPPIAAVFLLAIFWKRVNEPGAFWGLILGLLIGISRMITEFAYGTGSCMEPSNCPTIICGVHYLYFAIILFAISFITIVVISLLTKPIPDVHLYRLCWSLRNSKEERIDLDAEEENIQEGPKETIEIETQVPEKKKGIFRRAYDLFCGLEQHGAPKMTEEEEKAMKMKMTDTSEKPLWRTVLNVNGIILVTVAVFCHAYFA
From the text: (§1) The compounds can be tested for their SGLT inhibition properties by means of BHK cells expressing SGLT1 and SGLT2. The production of the cells and the testing can be carried out as described below.
To construct the SGLT1 expression vector (KL225), the SLC5A1 gene (homologous to NM_000343) was amplified from a cDNA library using standard PCR technology and cloned over NheI/XhoI sites into the pcDNA3.1 expression vector (Invitrogen) containing neomycin as a selection marker. In this vector, transcription uses the enhancer/promoter of human cytomegalovirus.
(§2) The final vector KL225 together with an additional vector containing a dihydrofolate reductase gene as a selection marker was introduced into cells. Transfection into BHK21 cells (ATCC CCL-10), cultivated in DMEM medium (GIBCO/BRL), supplemented with 10% foetal calf serum (FCS) and 20 mM glutamine, was carried out using calcium phosphate transfections according to Graham, F. L. and van der Ebb, A. J. (1973), Virology 52: 456 with 5-20 μg of uncut plasmids for 10^7 cells. Stable transfectants were selected in medium containing 1 mg/ml of G418 (GIBCO/BRL) and 20-5000 nM methotrexate as final concentration, where only cells which expressed the neomycin gene and overexpressed the dhfr gene were able to grow. After growth for 2-3 weeks, the cells were cloned (0.5 cells/well) and the clones were investigated for SGLT expression in radioactivity uptake tests.
(§3) The uptake of ^14C-α-methyl-D-glucopyranoside (AMG) in, for example, Xenopus oocytes injected with the corresponding cRNA has been described in principle (for example Wen-Sen Lee et al. (1994), J. Biol. Chem. 269, 12032-12039; Guofeng You et al. (1995), J. Biol. Chem. 270, 29365-29371).
(§4) A 96-well cell-based assay was developed and adapted to HTS requirements:
(§5) BHK cells (transfected with SGLT1 or SGLT2) were seeded into 96-well microtitre plates (Cultureplates, Perkin Elmer). After at least 24 h, medium was removed, and the cell layer was washed with assay buffer (140 mM NaCl, 2 mM KCl, 1 mM CaCl2, 1 mM MgCl2, 10 mM HEPES, 5 mM Tris, adjusted to pH 7.4 using 1 M KOH). After addition of 40 μl of assay buffer, 50 μl of AMG (50 μM for SGLT1 and 2 mM for SGLT2) in the presence or absence of compounds, the cells were incubated in a total volume of 100 μl at 37° C. for 90 min. Supernatant was removed by suction and discarded. Cells were washed and lysed by addition of 50 μl of water. After 10 min at room temperature, 200 μl of Micrsoscint 40 (Perkin Elmer) were added. The radioactivity was counted in a Topcount microplate scintillation counter (Perkin Elmer). The non-specific uptake was determined in sodium-free assay buffer (266 mM sucrose, 2 mM KCl, 1 mM CaCl2, 1 mM MgCl2, 10 mM HEPES, 5 mM Tris, adjusted to pH 7.4 using 1 M KOH).

SGLT2 = target: T2, SGLT2 (Homo sapiens, UniProt P31639); assay: 14C-AMG uptake in BHK cells transfected with SGLT2 (96-well cell-based assay); conditions: 2 mM AMG, 37° C., 90 min
T2 construct: expressed in transfected cells
T2 sequence (P31639 1-672): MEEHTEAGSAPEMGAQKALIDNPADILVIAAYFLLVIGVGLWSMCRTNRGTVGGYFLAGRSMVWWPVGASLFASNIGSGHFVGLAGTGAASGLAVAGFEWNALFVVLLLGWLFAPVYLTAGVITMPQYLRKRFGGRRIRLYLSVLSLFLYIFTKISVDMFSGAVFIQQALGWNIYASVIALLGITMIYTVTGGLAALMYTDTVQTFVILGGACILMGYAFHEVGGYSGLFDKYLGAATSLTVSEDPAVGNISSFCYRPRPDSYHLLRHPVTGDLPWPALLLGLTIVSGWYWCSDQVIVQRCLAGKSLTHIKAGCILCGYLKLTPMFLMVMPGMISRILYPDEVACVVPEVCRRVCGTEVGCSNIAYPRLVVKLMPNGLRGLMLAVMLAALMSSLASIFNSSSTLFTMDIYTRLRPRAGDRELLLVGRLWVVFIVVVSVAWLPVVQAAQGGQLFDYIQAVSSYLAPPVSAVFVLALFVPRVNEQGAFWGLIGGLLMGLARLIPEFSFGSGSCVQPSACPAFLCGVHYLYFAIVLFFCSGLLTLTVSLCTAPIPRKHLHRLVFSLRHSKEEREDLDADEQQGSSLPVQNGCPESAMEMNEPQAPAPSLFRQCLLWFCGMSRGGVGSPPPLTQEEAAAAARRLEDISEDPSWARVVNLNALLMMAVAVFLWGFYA
From the text: as §1
To construct the SGLT2 expression vector (KL224), the SLC5A2 gene (homologous to NM_003041) was amplified from a cDNA library using standard PCR technology and cloned over NheI/XhoI sites into PCI-neo expression vector (Promega) containing neomycin as a selection marker. In this vector, transcription uses the enhancer/promoter of human cytomegalovirus and the SV40 polyadenylation signal.
as §2, with “KL224” for “KL225”
as §3, §4, §5

Row | Compound | IC50 (SGLT1) | IC50 (SGLT2) | melting point
1 | COc1cc(C)c(-c2nc3ccc(F)cc3n2Cc2c(C)cccc2C)c(OCC(N)=O)c1 [Compound A1, 2-{2-[1-(2,6-dimethylbenzyl)-6-fluoro-1H-benzimidazol-2-yl]-5-methoxy-3-methylphenoxy}acetamide] | > 10 µM | 0.01 to 1 µM | 173 to 174 °C
2 | Cc1cccc(C)c1C(=O)n1c(-c2ccccc2OCC(N)=O)nc2ccccc21 [Compound A25, 2-{2-[1-(2,6-Dimethylbenzoyl)-1H-benzimidazol-2-yl]phenoxy}acetamide] | > 10 µM | > 10 µM | –
3 | Cc1cccc(C)c1Cn1c(-c2ccccc2OC2CCNC2=O)nc2ccccc21 (stereo not drawn) [Compound A26, 3-{2-[1-(2,6-Dimethylbenzyl)-1H-benzimidazol-2-yl]phenoxy}pyrrolidin-2-one] | > 10 µM | 1 to 10 µM | –
4 | Cc1cccc(C)c1Cn1c(-c2ccccc2OC(CO)C(N)=O)nc2ccccc21 (stereo not drawn) [Compound A27, 2-{2-[1-(2,6-Dimethylbenzyl)-1H-benzimidazol-2-yl]phenoxy}-3-hydroxypropionamide] | > 10 µM | > 10 µM | –
5 | COc1cc(C)c(-c2nc3cc(F)c(F)cc3n2Cc2c(C)cccc2C)c(OCC(N)=O)c1 [Compound A28, 2-{2-[1-(2,6-Dimethylbenzyl)-5,6-difluoro-1H-benzimidazol-2-yl]-5-methoxy-3-methylphenoxy}acetamide] | > 10 µM | 1 to 10 µM | –

Now from value to molecule:

Row | IC50 (SGLT1) | IC50 (SGLT2) | melting point | Compound
6 | > 10 µM | 1 to 10 µM | – | Cc1cccc(Cl)c1Cn1c(-c2ccccc2OCC(N)=O)nc2ccccc21 [Compound A22, 2-{2-[1-(2-Chloro-6-methylbenzyl)-1H-benzimidazol-2-yl]phenoxy}acetamide]
7 | > 10 µM | > 10 µM | – | Cc1cccc(C)c1Cn1c(-c2ccccc2OCC(N)=O)nc2cccc(Br)c21 [Compound A23, 2-{2-[7-Bromo-1-(2,6-dimethylbenzyl)-1H-benzimidazol-2-yl]phenoxy}acetamide]
8 | 1 to 10 µM | 0.01 to 1 µM | – | Cc1cccc(C)c1Cn1c(-c2ccccc2OCC(N)=O)nc2cccc(Cl)c21 [Compound A24, 2-{2-[7-Chloro-1-(2,6-dimethylbenzyl)-1H-benzimidazol-2-yl]phenoxy}acetamide]
9 | > 10 µM | 1 to 10 µM | – | Cc1cccc(C)c1Cn1c(-c2ccccc2OCC(N)=O)nc2ccc(F)c(F)c21 [Compound A29, 2-{2-[1-(2,6-Dimethylbenzyl)-6,7-difluoro-1H-benzimidazol-2-yl]phenoxy}acetamide]
10 | 1 to 10 µM | 0.01 to 1 µM | – | COc1cc(C)c(-c2nc3ccc(F)c(F)c3n2Cc2c(C)cccc2C)c(OCC(N)=O)c1 [Compound A30, 2-{2-[1-(2,6-Dimethylbenzyl)-6,7-difluoro-1H-benzimidazol-2-yl]-5-methoxy-3-methylphenoxy}acetamide]
